Experimental data: ChEMBL document CHEMBL5728389, “Nicotinyl alcohol ether derivative, preparation method therefor, and pharmaceutical composition and uses thereof” (2021)

biological target: Programmed cell death protein 1/Programmed cell death 1 ligand 1 (Homo sapiens, UniProt Q15116+Q9NZQ7); test: In Vitro Activity Assay: In vitro activity evaluation: Cisbio PD-1/PD-L1 binding assay kit was applied for the detection method of in vitro enzymology level.Screening Principles and Methods of PD-1/PD-L1 Small Molecule Inhibitors1) Principle: PD-1 protein is with HIS tag, and PD-1 ligand PD-L1 is with hFc tag. Eu labeled anti-hFc antibody and XL665 labeled anti-HIS antibody are combined with the above two label proteins respectively. After laser excitation, energy can be transferred from donor Eu to receptor XL665, allowing XL665 to glow. […] Reagents should be dispensed in the following order. For 384-well white ELISA plate, 2 μl of diluent or target compound diluted with diluent was added to each well, and then 4 μl of PD-1 protein and 4 μl of PD-L1 protein were added per well, incubated for 15 min at room temperature; and 10 μl of a mixture of anti-Tag1-Eu3+ and anti-Tag2-XL665 was added per well and incubated for 1 h to 4 h at room temperature and the fluorescence signals at 665 nm and 620 nm were measured with an Envison instrument. HTRF rate=(665 nm/620 nm)*104. 8-10 concentrations were detected for each compound and IC50 was calculated by Graphpad software.; type: protein-complex assay
Sequence (Q15116 whole entry): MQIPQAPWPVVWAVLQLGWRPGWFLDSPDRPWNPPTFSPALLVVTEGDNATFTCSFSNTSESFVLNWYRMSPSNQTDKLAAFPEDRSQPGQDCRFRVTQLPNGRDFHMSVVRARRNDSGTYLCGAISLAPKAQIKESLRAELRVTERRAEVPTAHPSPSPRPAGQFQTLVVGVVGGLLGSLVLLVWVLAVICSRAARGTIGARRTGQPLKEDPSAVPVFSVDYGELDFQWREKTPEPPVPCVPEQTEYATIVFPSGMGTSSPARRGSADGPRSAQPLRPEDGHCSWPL
Sequence (Q9NZQ7 whole entry): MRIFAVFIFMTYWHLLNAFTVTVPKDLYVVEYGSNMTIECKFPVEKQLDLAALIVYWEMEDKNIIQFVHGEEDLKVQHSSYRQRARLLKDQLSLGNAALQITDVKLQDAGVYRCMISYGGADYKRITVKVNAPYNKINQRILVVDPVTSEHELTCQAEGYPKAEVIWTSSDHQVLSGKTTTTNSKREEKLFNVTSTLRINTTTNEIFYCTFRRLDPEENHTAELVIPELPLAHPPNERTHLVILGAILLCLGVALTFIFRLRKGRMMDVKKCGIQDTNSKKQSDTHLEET

SMILES	IC50 [nM]
O=C(O)[C@H](CO)NCc1cc(Cl)c(OCc2cccc(-c3ccccc3)c2Cl)cc1OCc1cccnc1	40.1
O=C(O)[C@H](CO)NCc1cc(Cl)c(OCc2cccc(-c3ccccc3)c2F)cc1OCc1cccnc1	134
O=C(O)[C@H](CO)NCc1cc(Cl)c(OCc2cccc(-c3ccccc3)c2)cc1OCc1cccnc1	318
NC(=O)C[C@H](NCc1cc(Cl)c(OCc2cccc(-c3ccccc3)c2Br)cc1OCc1cccnc1)C(=O)O	835
C/C(=C\C(=O)O)NCc1cc(Cl)c(OCc2cccc(-c3ccccc3)c2Br)cc1OCc1cccnc1	2.33
O=S(=O)(O)CCNCc1cc(Cl)c(OCc2cccc(-c3ccccc3)c2Br)cc1OCc1cccnc1	16200
OCCN(CCO)Cc1cc(Cl)c(OCc2cccc(-c3ccccc3)c2Br)cc1OCc1cccnc1	51
OCCNCc1cc(Cl)c(OCc2cccc(-c3ccccc3)c2Br)cc1OCc1cccnc1	53.8
C[C@H](NCc1cc(Cl)c(OCc2cccc(-c3ccccc3)c2Br)cc1OCc1cccnc1)C(=O)O	5.29
